Data taken from patent US20260248780A1, “PHARMACEUTICAL COMPOSITIONS” (Birdie Biopharmaceuticals, Inc., priority 2017, published 2026).
Where a name gives a salt, the structure may show the parent alone. Marks after values point to notes of the source that are not given here.

Tests used:
Assay type in all cases: physicochemical
[1] = Kinetic solubility in water and bio-relevant media (SGF, FaSSIF, FeSSIF) at RT; conditions: for solubility kinetic: water and bio-relevant media (SGF, FaSSIF, FeSSIF), water/bio-relevant media
Description: After being centrifuged and separated using 0.45 μm Nylon filter, filtrates were collected for HPLC and pH test, and wet cakes for XRPD characterization. If clear solutions were obtained after 24 hours, accurate concentration and purity were measured for the solutions.

[2] = Inter-conversion of crystal forms via storage and heating experiments
[3] = Solubility estimation in solvents at RT; conditions: organic solvent or mixture, thermodynamic from solid
Description: Solubility of Type A was estimated in nine solvents at RT. […] Approximately 2 mg solids were added into a 3-mL glass vial.

[4] = water and bio-relevant media (SGF, FaSSIF, FeSSIF) at RT

In the case of `CCOCc1nc2c(N)nc3ccccc3c2n1CC(C)(C)O` [Adipate Type A, resiquimod], the “FC: Solid form change” value ([1]; FaSSIF, RT, 1 hr) is reported as “No”, the “S: Solubility” value ([1]; FaSSIF, RT, 1 hr) is reported as 4.3 mg/mL and the “S: Solubility” value ([1]; FaSSIF, RT, 2 hrs) is reported as 4.5 mg/mL. For the same molecule, the “S: Solubility” value ([1]; FaSSIF, RT, 4 hrs) was 4.6 mg/mL, the “S: Solubility” value ([1]; FaSSIF, RT, 24 hrs) was 4.5* mg/mL and the “S: Solubility” value ([1]; SGF, RT, 1 hr) was 4.7 mg/mL. The “S: Solubility” value ([1]; SGF, RT, 2 hrs) was “C (C: Clear)”, the “S: Solubility” value ([1]; SGF, RT, 4 hrs) was “C (C: Clear)” and the “S: Solubility” value ([1]; SGF, RT, 24 hrs) was 4.7* mg/mL. The “FC: Solid form change” value ([1]; Water, RT, 1 hr) was “No”, the “S: Solubility” value ([1]; Water, RT, 1 hr) was 2.8 mg/mL and the “FC: Solid form change” value ([1]; Water, RT, 2 hrs) was “No”. For the same molecule, the “S: Solubility” value ([1]; Water, RT, 2 hrs) was 2.7 mg/mL, the “FC: Solid form change” value ([1]; Water, RT, 4 hrs) was “No” and the “S: Solubility” value ([1]; Water, RT, 4 hrs) was 2.8 mg/mL. For the same molecule, the “FC: Solid form change” value ([1]; Water, RT, 24 hrs) was “No”, the “S: Solubility” value ([1]; Water, RT, 24 hrs) was 2.7 mg/mL and the “Kinetic Solubility at RT” value ([1]; bio-relevant media) was >4.2 (bio-relevant mg/mL. The “Kinetic Solubility at RT” value ([1]; water) was ~2.7 (water) mg/mL and the “solubility compared with freebase Type A” value [1, 4] was “improved or comparable solubility”.
In the case of `CCOCc1nc2c(N)nc3ccccc3c2n1CC(C)(C)O` [Di-HCl salt Type A, resiquimod], the “S: Solubility” value ([1]; FaSSIF, RT, 1 hr) is reported as “C (C: Clear)”, the “S: Solubility” value ([1]; FaSSIF, RT, 2 hrs) is reported as “C (C: Clear)” and the “S: Solubility” value ([1]; FaSSIF, RT, 4 hrs) is reported as “C (C: Clear)”. The “S: Solubility” value ([1]; FaSSIF, RT, 24 hrs) was 3.9* mg/mL, the “S: Solubility” value ([1]; FeSSIF, RT, 1 hr) was “C (C: Clear)” and the “S: Solubility” value ([1]; FeSSIF, RT, 2 hrs) was “C (C: Clear)”. For the same molecule, the “S: Solubility” value ([1]; FeSSIF, RT, 4 hrs) was “C (C: Clear)”, the “S: Solubility” value ([1]; FeSSIF, RT, 24 hrs) was 3.9* mg/mL and the “S: Solubility” value ([1]; SGF, RT, 1 hr) was “C (C: Clear)”. The “S: Solubility” value ([1]; SGF, RT, 2 hrs) was “C (C: Clear)”, the “S: Solubility” value ([1]; SGF, RT, 4 hrs) was “C (C: Clear)” and the “S: Solubility” value ([1]; SGF, RT, 24 hrs) was 3.9* mg/mL. For the same molecule, the “solubility compared with freebase Type A” value [1, 4] was “improved or comparable solubility”.
In the case of `CCOCc1nc2c(N)nc3ccccc3c2n1CC(C)(C)O` [Malate Type A, resiquimod], the “S: Solubility” value ([1]; FaSSIF, RT, 1 hr) is reported as “C (C: Clear)”, the “S: Solubility” value ([1]; FaSSIF, RT, 2 hrs) is reported as “C (C: Clear)” and the “S: Solubility” value ([1]; FaSSIF, RT, 4 hrs) is reported as “C (C: Clear)”. The “S: Solubility” value ([1]; FaSSIF, RT, 24 hrs) was 3.7* mg/mL, the “S: Solubility” value ([1]; SGF, RT, 1 hr) was “C (C: Clear)” and the “S: Solubility” value ([1]; SGF, RT, 2 hrs) was “C (C: Clear)”. The “S: Solubility” value ([1]; SGF, RT, 4 hrs) was “C (C: Clear)”, the “S: Solubility” value ([1]; SGF, RT, 24 hrs) was 4.3* mg/mL and the “S: Solubility” value ([1]; Water, RT, 1 hr) was “C (C: Clear)”. For the same molecule, the “S: Solubility” value ([1]; Water, RT, 2 hrs) was “C (C: Clear)”, the “S: Solubility” value ([1]; Water, RT, 4 hrs) was “C (C: Clear)” and the “S: Solubility” value ([1]; Water, RT, 24 hrs) was 3.7* mg/mL. For the same molecule, the “solubility compared with freebase Type A” value [1, 4] was “improved or comparable solubility” and the solubility kinetic ([1]; water) was over 3500 µg/mL.
With `CCOCc1nc2c(N)nc3ccccc3c2n1CC(C)(C)O` [Maleate Type A, resiquimod] the “FC: Solid form change” value ([1]; FaSSIF, RT, 1 hr) was “No”, the “S: Solubility” value ([1]; FaSSIF, RT, 1 hr) was 2.2 mg/mL and the “FC: Solid form change” value ([1]; FaSSIF, RT, 2 hrs) was “No”. For the same molecule, the “S: Solubility” value ([1]; FaSSIF, RT, 2 hrs) was 2.3 mg/mL, the “FC: Solid form change” value ([1]; FaSSIF, RT, 4 hrs) was “No” and the “S: Solubility” value ([1]; FaSSIF, RT, 4 hrs) was 2.4 mg/mL. The “FC: Solid form change” value ([1]; FaSSIF, RT, 24 hrs) was “No”, the “S: Solubility” value ([1]; FaSSIF, RT, 24 hrs) was 2.3 mg/mL and the “FC: Solid form change” value ([1]; FeSSIF, RT, 1 hr) was “No”. For the same molecule, the “FC: Solid form change” value ([1]; FeSSIF, RT, 2 hrs) was “No”, the “FC: Solid form change” value ([1]; FeSSIF, RT, 4 hrs) was “No” and the “FC: Solid form change” value ([1]; FeSSIF, RT, 24 hrs) was “No”. The “solubility compared with freebase Type A” value ([1]; SGF, FaSSIF, and FeSSIF at RT) was “decreased solubility”, the “FC: Solid form change” value ([1]; SGF, RT, 1 hr) was “No” and the “S: Solubility” value ([1]; SGF, RT, 1 hr) was 1.4 mg/mL. The “FC: Solid form change” value ([1]; SGF, RT, 2 hrs) was “No”, the “S: Solubility” value ([1]; SGF, RT, 2 hrs) was 1.5 mg/mL and the “FC: Solid form change” value ([1]; SGF, RT, 4 hrs) was “No”. The “S: Solubility” value ([1]; SGF, RT, 4 hrs) was 1.6 mg/mL, the “FC: Solid form change” value ([1]; SGF, RT, 24 hrs) was “No” and the “S: Solubility” value ([1]; SGF, RT, 24 hrs) was 1.5 mg/mL. For the same molecule, the “FC: Solid form change” value ([1]; Water, RT, 1 hr) was “No”, the “S: Solubility” value ([1]; Water, RT, 1 hr) was 0.93 mg/mL and the “FC: Solid form change” value ([1]; Water, RT, 2 hrs) was “No”. The “S: Solubility” value ([1]; Water, RT, 2 hrs) was 0.98 mg/mL, the “FC: Solid form change” value ([1]; Water, RT, 4 hrs) was “No” and the “S: Solubility” value ([1]; Water, RT, 4 hrs) was 1.1 mg/mL. For the same molecule, the “FC: Solid form change” value ([1]; Water, RT, 24 hrs) was “No”, the “S: Solubility” value ([1]; Water, RT, 24 hrs) was 0.97 mg/mL and the “Kinetic Solubility at RT” value ([1]; bio-relevant media) was ~1.5 (bio-relevant mg/mL. For the same molecule, the “form change after kinetic solubility evaluation” value ([1]; remaining solids after suspended 24 hours, XRPD) was “no form change” and the “Kinetic Solubility at RT” value ([1]; water) was ~1.0 (water) mg/mL.
With `CCOCc1nc2c(N)nc3ccccc3c2n1CC(C)(C)O` [Mono-HCl salt Type A, resiquimod] the solubility at 24 h ([1]; FaSSIF, thermodynamic from solid, FaSSIF, RT, 24 hrs, read-out: S: Solubility) was 4500 µg/mL, the “S: Solubility” value ([1]; FeSSIF, RT, 1 hr) was “C (C: Clear)” and the “S: Solubility” value ([1]; FeSSIF, RT, 2 hrs) was “C (C: Clear)”. The “S: Solubility” value ([1]; FeSSIF, RT, 4 hrs) was “C (C: Clear)”, the “S: Solubility” value ([1]; FeSSIF, RT, 24 hrs) was 4.6* mg/mL and the “S: Solubility” value ([1]; SGF, RT, 1 hr) was “C (C: Clear)”. For the same molecule, the “S: Solubility” value ([1]; SGF, RT, 2 hrs) was “C (C: Clear)”, the “S: Solubility” value ([1]; SGF, RT, 4 hrs) was “C (C: Clear)” and the “S: Solubility” value ([1]; SGF, RT, 24 hrs) was 4.7* mg/mL. For the same molecule, the “solubility compared with freebase Type A” value [1, 4] was “improved or comparable solubility” and the solubility kinetic ([1]; water, summary) was over 3800 µg/mL.
With `CCOCc1nc2c(N)nc3ccccc3c2n1CC(C)(C)O` [Phosphate Type A, resiquimod] the “S: Solubility” value ([1]; FaSSIF, RT, 1 hr) was “C (C: Clear)”, the “S: Solubility” value ([1]; FaSSIF, RT, 2 hrs) was “C (C: Clear)” and the “S: Solubility” value ([1]; FaSSIF, RT, 4 hrs) was “C (C: Clear)”. The “S: Solubility” value ([1]; FaSSIF, RT, 24 hrs) was 4.3* mg/mL, the “S: Solubility” value ([1]; SGF, RT, 1 hr) was “C (C: Clear)” and the “S: Solubility” value ([1]; SGF, RT, 2 hrs) was “C (C: Clear)”. The “S: Solubility” value ([1]; SGF, RT, 4 hrs) was “C (C: Clear)”, the “S: Solubility” value ([1]; SGF, RT, 24 hrs) was 4.0* mg/mL and the “S: Solubility” value ([1]; Water, RT, 1 hr) was “C (C: Clear)”. The “S: Solubility” value ([1]; Water, RT, 2 hrs) was “C (C: Clear)”, the “S: Solubility” value ([1]; Water, RT, 4 hrs) was “C (C: Clear)” and the “S: Solubility” value ([1]; Water, RT, 24 hrs) was 3.9* mg/mL. The “solubility compared with freebase Type A” value [1, 4] was “improved or comparable solubility”.
In the case of `CCOCc1nc2c(N)nc3ccccc3c2n1CC(C)(C)O` [Sulfate Type A, resiquimod], the “S: Solubility” value ([1]; FaSSIF, RT, 1 hr) is reported as “C (C: Clear)”, the “S: Solubility” value ([1]; FaSSIF, RT, 2 hrs) is reported as “C (C: Clear)” and the “S: Solubility” value ([1]; FaSSIF, RT, 4 hrs) is reported as “C (C: Clear)”. For the same molecule, the “S: Solubility” value ([1]; FaSSIF, RT, 24 hrs) was 4.0* mg/mL, the “S: Solubility” value ([1]; FeSSIF, RT, 1 hr) was “C (C: Clear)” and the “S: Solubility” value ([1]; SGF, RT, 1 hr) was “C (C: Clear)”. The “S: Solubility” value ([1]; SGF, RT, 2 hrs) was “C (C: Clear)”, the “S: Solubility” value ([1]; SGF, RT, 4 hrs) was “C (C: Clear)” and the “S: Solubility” value ([1]; SGF, RT, 24 hrs) was 3.9* mg/mL. The “S: Solubility” value ([1]; Water, RT, 1 hr) was “C (C: Clear)”, the “S: Solubility” value ([1]; Water, RT, 2 hrs) was “C (C: Clear)” and the “S: Solubility” value ([1]; Water, RT, 4 hrs) was “C (C: Clear)”. For the same molecule, the “S: Solubility” value ([1]; Water, RT, 24 hrs) was 4.1* mg/mL and the “solubility compared with freebase Type A” value [1, 4] was “improved or comparable solubility”.
For `CCOCc1nc2c(N)nc3ccccc3c2n1CC(C)(C)O` [Type C, resiquimod], the “form conversion on drying” value ([2]; dried at ambient conditions overnight) was “converted to Type A”.
With `CCOCc1nc2c(N)nc3ccccc3c2n1CC(C)(C)O` [Type F, resiquimod] the “form conversion on storage” value ([2]; storage at ambient conditions for 2 days) was “converted to Type A”.
With `CCOCc1nc2c(N)nc3ccccc3c2n1CC(C)(C)O` [sulfate Type A (807919-21-A)] the solubility ([3]; ACN) was under 2200 µg/mL, the solubility ([3]; DMAc) was over 40000 µg/mL and the solubility ([3]; DMSO) was over 44000 µg/mL. For the same molecule, the solubility ([3]; EtOAc) was under 2200 µg/mL, the solubility ([3]; IPAc) was under 2000 µg/mL and the solubility ([3]; MEK) was under 2000 µg/mL. The solubility ([3]; MIBK) was under 2100 µg/mL, the solubility ([3]; MTBE) was under 2300 µg/mL and the solubility ([3]; NMP) was over 44000 µg/mL. It also gave a solubility ([3]; anisole) of under 2200 µg/mL, a solubility ([3]; n-heptane) of under 2100 µg/mL and a solubility ([3]; toluene) of under 2000 µg/mL.
